Data published in PubChem BioAssay (NCI).
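Following 48 hours of exposure in 96-well plates, responses at five concentrations were used to interpolate endpoints linearly. At the GI50, growth is halved. TGI: total growth inhibition.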

Legend:
Assay in all cases: growth of human tumour cells (NCI), 48 h
[1] = tested on: OVCAR-3 ovarian
[2] = tested on: M14 melanoma
[3] = tested on: NCI-H522 lung
[4] = tested on: 786-0 renal
[5] = tested on: IGROV1 ovarian
[6] = tested on: CAKI-1 renal
[7] = tested on: A498 renal
[8] = tested on: SNB-19 CNS
[9] = tested on: MDA-MB-231 breast
[10] = tested on: SR leukemia

SMILES	TGI [1]	TGI [2]	TGI [3]	TGI [4]	TGI [5]	TGI [6]	TGI [7]	TGI [8]	GI50 [1]	GI50 [3]	GI50 [4]	GI50 [6]	GI50 [7]	GI50 [8]	GI50 [9]	TGI [9]	TGI [10]	GI50 [10]	GI50 [2]	GI50 [5]
CC(=O)CC(=O)CCC(=O)Nc1cccc(C(F)(F)F)c1	> 100 µM	> 100 µM	> 100 µM	> 100 µM	> 100 µM	> 100 µM	> 100 µM	> 100 µM												
N#C/C(=C1\OC(=N)C(c2ccc(Cl)cc2Cl)C1=O)c1ccc(Cl)cc1Cl (stereo not given)	> 100 µM	> 100 µM	> 100 µM	> 100 µM	> 100 µM	> 100 µM	> 100 µM	> 100 µM												
COC(=O)c1cc([N+](=O)[O-])cc([N+](=O)[O-])c1Cl	3.2 µM		3.31 µM	3.22 µM		3.28 µM	30.7 µM	34.5 µM	1.78 µM	1.82 µM	1.79 µM	1.73 µM	17 µM	17.4 µM	2.34 µM	5.79 µM				
Cc1cc2c(c(=O)o1)C1=S(SC(c3ccccc3)=C1)S2 (stereo not given)	75.2 µM	> 100 µM	> 100 µM	28.8 µM	> 100 µM		34 µM	> 100 µM								> 100 µM	38.5 µM			
C=CC(=O)N[C@@H](/C=C/C(=O)OCC)Cc1ccc(-c2cc(Cl)cc(Cl)c2)cc1	53.1 µM	80.6 µM	24.9 µM	91 µM	> 100 µM	> 100 µM		> 100 µM	7.27 µM	7.6 µM	20.2 µM	21.5 µM		16.5 µM	12.8 µM	48.8 µM	44.8 µM	5.63 µM	17 µM	12.7 µM
CC1CCC2(C)C(CC=C(C=O)C2(O)C=O)C12CO2 (stereo not given)	2.6 µM	6.29 µM	5.89 µM	5.83 µM	7.72 µM	11 µM	20.1 µM	22.5 µM									5.33 µM			
C[C@H]1CN(C2COC2)CCN1c1ccc(Nc2cc(-c3ccnc(N4CCn5c(cc6c5CC(C)(C)C6)C4=O)c3CO)cn(C)c2=O)nc1	> 100 µM		> 100 µM	> 100 µM	> 100 µM	> 100 µM	33.9 µM	> 100 µM	37.4 µM	56.3 µM	19.5 µM	27.9 µM	10.3 µM	51.2 µM	26.1 µM	> 100 µM	> 100 µM	23.1 µM		19.7 µM
O=C(Cc1ccccc1)C(c1ccccc1)S(=O)(=O)c1ccccc1 (stereo not given)	> 100 µM	> 100 µM	> 100 µM	> 100 µM	> 100 µM	> 100 µM	> 100 µM	> 100 µM									> 100 µM			
CC(C)(C)c1cc(C(=O)O)c2c(c1)C(=O)OC2(c1ccccc1)c1ccccc1C(=O)O (stereo not given)	> 100 µM	> 100 µM		> 100 µM	> 100 µM	> 100 µM	> 100 µM	> 100 µM					> 100 µM		> 100 µM	> 100 µM	> 100 µM			> 100 µM
Clc1ccc([I+]c2ccc(Cl)cc2Cl)c(Cl)c1	3.09 µM	6.07 µM	3.01 µM	4.36 µM		3.32 µM	6.98 µM	15.9 µM	1.65 µM	1.62 µM	2.09 µM	1.61 µM	1.76 µM	4.28 µM	2.04 µM	4.42 µM	5.65 µM	2.19 µM	2.58 µM	
CC1CCC2C(CN(CC3=C(C(F)(F)F)OC4OC5(C)CCC6C(C)CCC3C46OO5)CC3=C(C(F)(F)F)OC4OC5(C)CCC6C(C)CCC3C46OO5)=C(C(F)(F)F)OC3OC4(C)CCC1C32OO4 (stereo not given)		59.7 µM	42.2 µM	21.9 µM		18.4 µM		> 100 µM		16.2 µM	8.48 µM	5.87 µM		30.8 µM	13.4 µM	36.6 µM			22.2 µM	
O=C(CO)C1CC2C=CC1C2 (stereo not given)	> 100 µM	> 100 µM	> 100 µM	> 100 µM	> 100 µM	> 100 µM	> 100 µM	> 100 µM												
c1ccc(-c2csc3ncn4cnnc4c23)cc1	> 100 µM	> 100 µM	> 100 µM	> 100 µM	> 100 µM			> 100 µM												
O=S(=O)(NCCCNc1nccc(-c2c(-c3ccc(F)cc3)nc3sccn23)n1)c1ccc(F)cc1		> 100 µM	> 100 µM	> 100 µM	> 100 µM	> 100 µM	45.6 µM	> 100 µM		10 µM	11 µM	7.8 µM	2.25 µM	62.1 µM	14.2 µM	> 100 µM			7.06 µM	8.85 µM
CC(=O)[CH-]C(C)=O.CC(=O)[CH-]C(C)=O.CC(=O)[CH-]C(C)=O.[Ga+3]	> 100 µM	> 100 µM	> 100 µM	> 100 µM	> 100 µM	> 100 µM		> 100 µM	> 100 µM	> 100 µM	> 100 µM	> 100 µM		> 100 µM			> 100 µM	> 100 µM	> 100 µM	> 100 µM
O=[N+]([O-])/C=C/c1ccc(Cl)cc1Cl	53.6 µM	24.4 µM	29.8 µM	42.2 µM	29.4 µM	29.8 µM		32.4 µM									47 µM			
CC(N)CC(=O)O (stereo not given)	> 5000 µM	> 5000 µM	> 5000 µM	> 5000 µM	> 5000 µM		> 5000 µM										> 5000 µM			
COc1ccc(OC)c(Cc2cnc3nc(N)nc(N)c3c2C)c1	10.9 µM	> 41.9 µM	21.8 µM	30.2 µM	2.61 µM	> 81.9 µM		55.4 µM								33.8 µM	21.7 µM			
